The target in one assay is Wee1 (Homo sapiens (Human), UniProt P30291). Put plainly: Wee1 enzyme catalysis assay (ATP-Glo Max kinase luminescence detection kit). As to conditions: Wee1 enzymatic activity, 10 μM ATP, Poly (Lys, Tyr) substrate, 30° C. for 50 minutes. In kind it is biochemical. How it is done:
In the present disclosure, Wee1 enzyme catalysis assay was carried out using the ATP-Glo Max kinase luminescence detection kit (Promega). Kinase activity was assessed by quantitative detection of the amount of ATP retained in the solution following the kinase reaction. The luminescent signal in the assay is proportional to the amount of ATP and inversely proportional to the kinase activity. The concentration of the compound in the assay ranged from 0.5 nM to 30 μM. The compound was dissolved in 10% DMSO, and 5 μL of the solution was added to 50 μL of the reaction, and the concentration of DMSO in the final reaction was 1%. The reaction was carried out at 30° C. for 50 minutes. 40 mM trishydroxymetyl aminomethane, pH 7.4, 10 mM MgCl2, 0.1 mg/ml BSA, 2 mM DTT, 0.1 mg/ml Poly (Lys, Tyr) substrate, 10 μM ATP and Wee1 were contained in the reaction mixture. After the enzymatic reaction, 50 μL of ATP-Glo Max kinase luminescence detection assay solution (Promega) was added and incubated for 15 minutes at room temperature. The luminescent signal was measured using a microplate reader. In some assays, a known Wee1 inhibitor was added as a positive control. Luminance data was analyzed using Graphpad software. The difference between the luminescence intensity in the absence of Wee1 and the luminescence intensity in the presence of Wee1 was defined as 100% activity (Lut−Luc). Using the luminescence intensity signal (Lu) in the presence of the compound, the % activity was calculated as follows: % Activity={(Lut−Lu)/(Lut−Luc)}×100%, wherein, Lu=luminous intensity of the compound Non-linear regression analysis was employed to plot the dose-effect curve of % activity value and the corresponding concentrations for the series of compounds. The equation is Y=B+(TB)/1+10((Log EC50−X)×Hill Slope), Y=% activity, B=minimum activity percentage, T=maximum activity percentage, X=logarithm of compound and Hill slope=slope factor or Hill coefficient. The IC50 value was determined by the concentration of a compound that is required to obtain 50% of the maximum effect.

Assay [1] deals with Human osteosarcoma cell line MG63. Put plainly: Cell proliferation assay (CCK-8 cell viability). In kind it is cell-based. As to conditions: Homo sapiens, MG-63, 72 h, CCK-8, 72 hours incubation. How it is done:
In the present disclosure, cell assays were used to assess the biological activity of the compound. Human osteosarcoma cell line MG63 (ATCC CRL-1427) was cultured in a 96-well plate of Dulbecco's Modified Eagle's medium, supplemented with 10% fetal bovine serum and 1% (v/v) L-glutamine, and the cultivation environment was 37° C. and 5% CO2. Compound concentrations ranged from 4.5 nM to 30 μM. The Wee1 inhibitor stock solution was dissolved in DMSO, added to the medium with an indicated concentration and incubated for 72 hours. Negative control cells were only treated with vehicle. In some assays, a known Wee1 inhibitor was added as a positive control. Cell viability was measured using a Cell Counting Kit-8 (CCK-8, Sigma-Aldrich) under the instruction of the product specification. The data was analyzed using Graphpad software to obtain a fitted curve of IC50 values against the compounds.

We go through 45 compounds from US11248006B2, “Macrocyclic derivative of pyrazol[3,4-d]pyrimidin-3-one, pharmaceutical composition and use thereof” (SHANGHAI DE NOVO PHARMATECH CO., LTD., priority 2017, dated 2022).

Sequence of Wee1 (P30291 whole entry): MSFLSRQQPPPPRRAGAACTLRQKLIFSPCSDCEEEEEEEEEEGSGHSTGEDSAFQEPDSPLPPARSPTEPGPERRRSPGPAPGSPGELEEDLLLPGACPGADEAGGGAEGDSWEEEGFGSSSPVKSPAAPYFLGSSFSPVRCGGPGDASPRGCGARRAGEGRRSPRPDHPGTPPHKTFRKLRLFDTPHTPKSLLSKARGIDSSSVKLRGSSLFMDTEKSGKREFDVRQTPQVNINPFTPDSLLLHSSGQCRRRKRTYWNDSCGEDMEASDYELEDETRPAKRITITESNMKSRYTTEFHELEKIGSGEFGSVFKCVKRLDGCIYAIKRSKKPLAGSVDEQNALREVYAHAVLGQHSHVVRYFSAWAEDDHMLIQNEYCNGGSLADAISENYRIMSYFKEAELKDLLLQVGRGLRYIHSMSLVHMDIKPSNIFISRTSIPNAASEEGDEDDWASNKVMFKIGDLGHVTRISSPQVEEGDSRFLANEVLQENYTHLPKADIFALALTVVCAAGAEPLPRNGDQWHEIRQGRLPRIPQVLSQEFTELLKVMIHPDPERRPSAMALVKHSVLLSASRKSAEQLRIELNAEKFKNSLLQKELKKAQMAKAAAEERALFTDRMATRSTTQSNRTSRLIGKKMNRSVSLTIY

In the case of `CS(=O)(=O)CCN1CCC(n2ccc3cc(Nc4ncc5c(=O)n6n(c5n4)-c4ccc5c(n4)N(CCC/C=C\C6)C(=O)CO5)ccc32)CC1` [Compound 3-7-9], the IC50 came out at 9.2 nM against Wee1 and 193 nM in assay [1].
At Wee1, `CN1Cc2cc(Nc3ncc4c(=O)n5n(c4n3)-c3cccc(n3)OCCCC/C=C\C5)ccc2C2(CC2)C1` [Compound 1-2-2] came in with an IC50 of 10.3 nM.
Still for that read-out and setting: the result for `Cc1cc(Nc2ncc3c(=O)n4n(c3n2)-c2ccc3c(n2)N(CCCC=CC4)C(=O)CO3)ccc1N1CCN(C)CC1` [Compound 3-3-9] reads 6.3 nM.
Still for that read-out and setting: the value for `CN1CCN(c2ccc(Nc3ncc4c(=O)n5n(c4n3)-c3cccc(n3)OCC/C=C\C5)cc2)CC1` [Compound 1-1-3] was 7.3 nM; that for `CC(=O)N1CCC/C=C\Cn2c(=O)c3cnc(Nc4ccc5c(c4)CN(C)CC5(C)C)nc3n2-c2cccc1n2` [Compound 2-3-2] was 16.4 nM.
The same measure, in the same setting: the value for `CCN1Cc2cc(Nc3ncc4c(=O)n5n(c4n3)-c3ccc4c(n3)N(CCC/C=C\C5)C(=O)CO4)ccc2C2(CC2)C1` [Compound 3-2-5] was 7.7 nM.
`C=CCn1c(=O)c2cnc(Nc3ccc(N4CCN(C)CC4)cc3)nc2n1-c1cccc(C(C)(C)O)n1` [AZD1775, 2-allyl-1-(6-(2-hydroxypropan-2-yl)pyridin-2-yl)-6-((4-(4-methylpiperazin-1-yl)phenyl)amino)-1H-pyrazolo[3,4-d]pyrimidin-3 (2H)-one, reference compound] yielded an IC50 in assay [1] of 785 nM.
At Wee1, `COc1cc(Nc2ncc3c(=O)n4n(c3n2)-c2ccc3c(n2)N(CCC/C=C/C4)C(=O)CO3)ccc1N1CCN(C)CC1` [Compound 3-3-11] came in with an IC50 of 6.5 nM.
For the compound `CN1CCN(c2cc(Nc3ncc4c(=O)n5n(c4n3)-c3ccc4c(n3)N(CCC/C=C\C5)C(=O)CO4)cc3ccoc23)CC1` [Compound 3-7-17], in assay [1], half-maximal inhibition (IC50) was put at 270 nM.
In the case of `CN1CCN(c2ccc(Nc3ncc4c(=O)n5n(c4n3)-c3ccc4c(n3)N(CCC/C=C\C5)C(=O)CO4)cc2F)CC1` [Compound 3-3-8], the half-inhibitory concentration (IC50) against Wee1 is 7.6 nM.
Same read-out and setting: the result for `COc1cc(Nc2ncc3c(=O)n4n(c3n2)-c2ccc3c(n2)N(CCC#CC4)C(=O)CO3)ccc1N1CCN(C)CC1` [Compound 10-1-5] reads 11.7 nM.
Still for that read-out and setting: the result for `CN1Cc2cc(Nc3ncc4c(=O)n5n(c4n3)-c3ccc4c(n3)N(CCO4)C(=O)CC/C=C\C5)ccc2C(C)(C)C1` [Compound 8-1-1] reads 20.1 nM; that for `CC(=O)N1CC/C=C\Cn2c(=O)c3cnc(Nc4ccc5c(c4)CN(C)CC5(C)C)nc3n2-c2cccc1n2` [Compound 2-3-1], 10.7 nM; that for `CN1CCN(c2ccc(Nc3ncc4c(=O)n5n(c4n3)-c3cccc(n3)OCCC/C=C\C5)cc2)CC1` [Compound 1-1-2], 32 nM.
The same measure, in the same setting: the result for `O=C1COc2ccc3nc2N1CCC/C=C\Cn1c(=O)c2cnc(Nc4ccc(N5CCN6CCCC6C5)cc4)nc2n1-3` (stereo not shown) [Compound 3-3-10] reads 8.8 nM; that for `CN1CCOc2ccc(Nc3ncc4c(=O)n5n(c4n3)-c3ccc4c(n3)N(CCC/C=C\C5)C(=O)CO4)cc2C1` [Compound 3-4-2], 8.2 nM.
`CC(=O)N1CCCCC=CCn2c(=O)c3cnc(Nc4ccc(N5CCN(C)CC5)cc4)nc3n2-c2cccc1n2` [Compound 2-1-1]: the IC50 against Wee1 was 75.2 nM.
`CN1CCN(c2ccc3cc(Nc4ncc5c(=O)n6n(c5n4)-c4ccc5c(n4)N(CCC/C=C\C6)C(=O)CO5)ccc3c2)CC1` [Compound 3-8-1] yielded a half-maximal inhibitory concentration (IC50) in assay [1] of 160 nM.
`COc1cc(Nc2ncc3c(=O)n4n(c3n2)-c2cccc(n2)OCC/C=C\C4)ccc1N1CCN(C)CC1` [Compound 1-1-6] returned an IC50 on Wee1 of 6.8 nM.
For the compound `CN1CCN(c2ccc(Nc3ncc4c(=O)n5n(c4n3)-c3cccc(n3)OCC/C=C\C5)cc2CO)CC1` [Compound 1-1-5], half-maximal inhibition at Wee1 (IC50) required 6.1 nM.
Compound `CN1CCCC(n2ccc3cc(Nc4ncc5c(=O)n6n(c5n4)-c4ccc5c(n4)N(CCC/C=C\C6)C(=O)CO5)ccc32)C1` (stereo not shown) [Compound 3-7-2] came in with an IC50 on Wee1 of 18.2 nM.
Still for that read-out and setting: the result for `CN1Cc2cc(Nc3ncc4c(=O)n5n(c4n3)-c3ccc4c(n3)N(CCC/C=C\C5)CCO4)ccc2C2(CC2)C1` [Compound 8-2-1] reads 11.6 nM.
The same measure, in the same setting: the value for `CN1CCN(Cc2ccc(Nc3ncc4c(=O)n5n(c4n3)-c3ccc4c(n3)N(CCC/C=C\C5)C(=O)CO4)cc2)CC1` [Compound 3-3-6] was 24.8 nM.
In the case of `CN1CCN(C)c2ccc(Nc3ncc4c(=O)n5n(c4n3)-c3ccc4c(n3)N(CCC/C=C\C5)C(=O)CO4)cc2C1` [Compound 3-4-1], at Wee1, the half-inhibitory concentration (IC50) amounted to 9.4 nM.
The same measure, in the same setting: the value for `CC(=O)N1CCCCC=CCn2c(=O)c3cnc(Nc4ccc(N5CCN(C)CC5)cc4)nc3n2-c2cccc1n2` [Compound 2-1-2] was 62.5 nM.
Regarding `CN1CCN(c2ccc(Nc3ncc4c(=O)n5n(c4n3)-c3cccc(n3)OCCOC/C=C/C5)cc2)CC1` [Compound 1-1-4], on Wee1, the IC50 came to 30.2 nM.
On the same count and under the same terms, the result for `COc1cc(Nc2ncc3c(=O)n4n(c3n2)-c2ccc3c(n2)N(CCC/C=C\C4)C(=O)CO3)ccc1N1CCN(C)C(C)C1` (stereo not shown) [Compound 3-3-5] reads 4.8 nM; that for `O=C1COc2ccc3nc2N1CCC/C=C\Cn1c(=O)c2cnc(Nc4ccc5c(c4)CN(CC(F)F)CC54CC4)nc2n1-3` [Compound 3-2-8], 9 nM; that for `CN1Cc2cc(Nc3ncc4c(=O)n5n(c4n3)-c3cccc(n3)OCC/C=C\C5)ccc2C(C)(C)C1` [Compound 1-3-1], 8.1 nM.
For `CN(C)CCn1ccc2cc(Nc3ncc4c(=O)n5n(c4n3)-c3ccc4c(n3)N(CCC/C=C\C5)C(=O)CO4)ccc21` [Compound 3-7-1], the IC50 at Wee1 came out at 7.6 nM.
As for `CC(C)N1CCC(n2ncc3cc(Nc4ncc5c(=O)n6n(c5n4)-c4ccc5c(n4)N(CCC/C=C\C6)C(=O)CO5)ccc32)CC1` [Compound 3-7-14], the half-maximal inhibitory concentration (IC50) against Wee1 stood at 6.5 nM.
Still for that read-out and setting: the result for `CN1Cc2cc(Nc3ncc4c(=O)n5n(c4n3)-c3ccc4c(c3)N(CCC/C=C\C5)C(=O)CO4)ccc2C2(CC2)C1` [Compound 4-1-1] reads 5.1 nM.
The same measure, in the same setting: the result for `CN(C)CCn1ccc2cc(Nc3ncc4c(=O)n5n(c4n3)-c3cccc(n3)C(C)(O)CCC/C=C\C5)ccc21` (stereo not shown) [Compound 6-1-1] reads 155 nM; that for `COC(=O)N1CCC(n2ccc3cc(Nc4ncc5c(=O)n6n(c5n4)-c4ccc5c(n4)N(CCC/C=C\C6)C(=O)CO5)ccc32)CC1` [Compound 3-7-4], 36.6 nM.
Still for that read-out and setting: the result for `COc1cc(Nc2ncc3c(=O)n4n(c3n2)-c2ccc3c(n2)N(CCC/C=C\C4)C(=O)CC3)ccc1N1CCN(C)CC1` [Compound 5-1-1] reads 7.5 nM; that for `CN1Cc2ccc(Nc3ncc4c(=O)n5n(c4n3)-c3cccc(n3)OCCOC/C=C/C5)cc2C(C)(C)C1` [Compound 1-3-2], 23.8 nM.
`COc1cc(Nc2ncc3c(=O)n4n(c3n2)-c2ccc3c(n2)N(CCC/C=C\C4)CCO3)ccc1N1CCN(C)CC1` [Compound 8-2-2]: inhibition against Wee1 was half-maximal at 13 nM (IC50).
On the same count and under the same terms, the result for `CN1Cc2cc(Nc3ncc4c(=O)n5n(c4n3)-c3cccc(n3)N(C)CCC/C=C\C5)ccc2C(C)(C)C1` [Compound 9-1-1] reads 11.8 nM.
Same read-out and setting: the value for `CC1CN(c2ccc(Nc3ncc4c(=O)n5n(c4n3)-c3ccc4c(n3)N(CCC/C=C\C5)C(=O)CO4)cc2)CCN1C` (stereo not shown) [Compound 3-3-3] was 5.7 nM.
On the same count and under the same terms, the value for `CN1Cc2cc(Nc3ncc4c(=O)n5n(c4n3)-c3ccc4c(n3)N(CCCC/C=C/C5)C(=O)CO4)ccc2C2(CC2)C1` [Compound 3-2-1] was 21 nM; that for `CN1Cc2cc(Nc3ncc4c(=O)n5n(c4n3)-c3ccc4c(n3)N(CCC/C=C\C5)C(=O)CO4)ccc2C1=O` [Compound 3-6-1] was 16.2 nM; that for `CN1C[C@@H]2C[C@H]1CN2c1ccc(Nc2ncc3c(=O)n4n(c3n2)-c2ccc3c(n2)N(CCC/C=C\C4)C(=O)CO3)cc1` [Compound 3-3-4] was 8.6 nM.
Take `COc1cc(Nc2ncc3c(=O)n4n(c3n2)-c2ccc3c(n2)N(CCCC#CC4)C(=O)CO3)ccc1N1CCN(C)CC1` [Compound 10-1-3]: at Wee1, the IC50 is 8.4 nM.
On the same count and under the same terms, the value for `CN1Cc2cc(Nc3ncc4c(=O)n5n(c4n3)-c3ccc4c(n3)N(CCC/C=C\C5)C(=O)C(C)(C)O4)ccc2C2(CC2)C1` [Compound 7-1-1] was 12.9 nM; that for `CN1Cc2cc(Nc3ncc4c(=O)n5n(c4n3)-c3ccc4c(n3)N(CCO4)C(=O)OC/C=C\C5)ccc2C2(CC2)C1` [Compound 8-3-1] was 16.3 nM.
